One series in a line: Solubility in water. Type of series: physicochemical. An excerpt:
The solubility of cannabinoid target compounds in water can be substantially affected by pH and by temperature. […] At a temperature of 70 degrees Celsius or higher, and pH of 10 or higher, the solubility of CBDA in water is over 20 milligrams per milliliter. Conversely, at a temperature of 4 degrees Celsius or lower and pH 4 of or lower, the solubility of CBDA in water is below 20 micrograms per milliliter. Consequently, a process of washing a plant extract composition that contains CBDA with acidified water having a low temperature can be effective to remove hydrophilic components from the plant extract composition, without removing much CBDA from the plant extract composition.

Series [1] is described as follows: Solubility in high-KB amide surfactant (DMDA / Met10u). An excerpt: (§1) Another example of a processing step is a step of combining a liquid that contains target compound with anti-solvent. When a target compound is contained in a liquid, e.g., an organic solvent or water (together, “solvents”), an anti-solvent may be used to reduce the capacity of the solvent to contain the target compound, thereby supersaturating the solvent with the target compound. […] The use of an antisolvent can increase the efficiency of purification of a target compound by increasing the saturation of one or more target compounds in a solvent to which the target compounds are added or present. The antisolvent occupies the binding potential of a primary solvent for a target compound, thereby reducing the ability of the primary solvent to contain (e.g., dissolve) the target compound.
As an alternative to an “oiling-out” technique followed by a crystallization step, target compound dissolved in an aqueous solution (at high temperature and alkaline pH) can be separated from the aqueous solution by causing the target compound to directly form a separate solid phase such as crystals within the solution, i.e., to “crystallize out” of the solution, without an “oiling-out” step. Depending on the composition of the aqueous solution, e.g., if the aqueous solution contains a sufficiently high concentration and purity of dissolved target compound, the target compound may be caused to form crystals directly by reducing pH and temperature of the aqueous solution. […] A method as described may include adding surfactant (e.g., ninol CAA) or an oil or a solvent or additive that encourages crystallization or alternatively, oiling out.

A short description of series [2]: Solubility in mineral oil. As to conditions: under certain conditions.
Description: as §1

A short description of series [3]: Thermal stability (decarboxylation). The note with it: saturated solution of CBDA in Met10u. Type of series: physicochemical. The procedure: A saturated solution of CBDA in Met10u is prepared at 30C or preferably at 60C or higher, up to 100C or higher but below 130C. At a temperatures that is at least 130C, CBDA begins to lose its carboxylic moiety (decarboxylation) and become CBD. At temperatures above 130C CBD, not CBDA, could be separated if the desired end product is CBD.

These results are taken from patent US12415145B2, “Compositions that contain lipophilic plant material and surfactant, and related methods” (priority 2019, dated 2025).

SMILES strings stand for the structures.

With `C=C(C)[C@@H]1CCC(C)=C[C@H]1c1c(O)cc(CCCCC)c(C(=O)O)c1O` [CBDA], the “solubility of CBDA in water” value is “below 20 micrograms per milliliter” in “Solubility in water” (temperature of 4 degrees Celsius or lower, pH 4 or lower) and “over 20 milligrams per milliliter” in the series “Solubility in water” (temperature of 70 degrees Celsius or higher, pH of 10 or higher). Moreover, the “solubility of CBDA in Met10u” value in series [1] (at 60C) was found to be 100%; in series [1] (at OC) it was 1%. For the same compound, the “solubility in DMDA” value in series [1] (at 70C) is “over 1000 mg/ml”. The “solubility in mineral oil” value in series [2] was “about 6 mg/ml”. Besides, the “temperature at which CBDA begins to lose its carboxylic moiety (decarboxylation) and become CBD” value in series [3] is “at least 130 C”.

For `C=CCCCCCCCC(=O)N(C)C` [STEPOSOL™ MET-10U, N, N-dimethyl 9-decenamide], in series [1] (water dissolved in surfactant of plant extract composition), the “fraction of dissolved water in the high KB surfactant” value stood at 15%.
